Here are results for 21 compounds from patent publication US7786141B2 (Vertex Pharmaceuticals Incorporated, priority 2004, dated 2010).

In assay [1] the target is T1, M1 muscarinic receptor (Homo sapiens, UniProt P11229).
T1 construct: expressed in transfected cells; host or cells: CHO (M1-CHO)
T1 sequence (P11229 1-460): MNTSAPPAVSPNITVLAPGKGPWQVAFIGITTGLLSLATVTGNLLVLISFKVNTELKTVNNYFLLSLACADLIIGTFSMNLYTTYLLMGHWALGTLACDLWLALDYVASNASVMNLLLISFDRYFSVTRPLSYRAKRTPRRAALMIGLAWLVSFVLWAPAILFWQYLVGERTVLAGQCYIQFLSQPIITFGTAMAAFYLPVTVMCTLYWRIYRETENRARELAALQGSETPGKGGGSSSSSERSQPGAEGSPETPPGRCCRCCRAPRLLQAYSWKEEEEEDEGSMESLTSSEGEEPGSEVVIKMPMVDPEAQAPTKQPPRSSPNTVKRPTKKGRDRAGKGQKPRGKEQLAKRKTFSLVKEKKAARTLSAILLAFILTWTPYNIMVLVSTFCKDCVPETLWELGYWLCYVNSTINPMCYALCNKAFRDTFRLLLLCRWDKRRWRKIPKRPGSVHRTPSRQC
Kind of assay: Functional mobilization of intracellular calcium (FLIPR) in M1-CHO cells. In kind it is cell-based. The note with it: M1 receptor, calcium mobilization; for Emax: read-out: M1 Efficacy. In a few lines: (§1)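 FLIPR Ca2+ read, ex 488/em 540 nm, 60 s. Recombinant CHO lines (M1 or M4), dye-loaded Fluo-3 AM 60-90 min at 37° C, probenecid 1 mM, pH 7.4. Agonist: compound alone; inhibition: 15 min compound pre-incubation, then carbachol at EC80 for that subtype.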
For orientation: Calcium assays in cells follow changes in intracellular calcium, usually with a dye or a luminescent sensor.

The target in assay [2] is T2, M4 muscarinic receptor (Homo sapiens, UniProt P08173).
T2 construct: expressed in transfected cells; host or cells: CHO (M4-CHO)
T2 sequence (P08173 1-479): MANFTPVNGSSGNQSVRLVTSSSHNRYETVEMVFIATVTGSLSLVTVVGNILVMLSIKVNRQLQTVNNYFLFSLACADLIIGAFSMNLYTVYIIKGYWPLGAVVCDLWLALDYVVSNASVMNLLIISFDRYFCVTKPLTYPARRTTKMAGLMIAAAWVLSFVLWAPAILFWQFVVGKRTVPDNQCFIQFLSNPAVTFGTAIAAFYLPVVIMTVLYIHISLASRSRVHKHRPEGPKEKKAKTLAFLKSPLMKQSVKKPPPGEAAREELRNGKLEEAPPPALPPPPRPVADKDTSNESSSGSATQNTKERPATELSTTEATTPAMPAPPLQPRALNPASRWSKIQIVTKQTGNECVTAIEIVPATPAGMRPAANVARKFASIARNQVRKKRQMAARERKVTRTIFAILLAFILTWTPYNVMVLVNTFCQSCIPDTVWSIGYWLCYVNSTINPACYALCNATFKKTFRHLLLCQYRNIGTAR
In words: Functional mobilization of intracellular calcium (FLIPR) in M4-CHO cells. In kind it is cell-based. Conditions: M4 receptor, calcium mobilization; for Emax: read-out: M4 Efficacy. The gist of the method: as §1

On to `CC(=O)N1CC2(CCN(C3CC[C@@H]4CC[C@@H]3C4)CC2)c2cc(F)ccc21` (stereo partly drawn) [compound 251], for which, in assay [1], the “M1 Activity” value is “xx (activity was measured to be between 0.1 μM and 1.0 μM)”; the Emax was 65 to 85%. For the same compound, in assay [2], the “M4 Activity” value is listed as “x (activity was measured to be greater than 1.0 μM)” and the Emax was in the range of 65 to 85%.

Turning to `CCCOC(=O)N1CCC(N2CCC3(CC2)CN(C(C)=O)c2ccc(C)cc23)CC1` [compound 252], in assay [1], the “M1 Activity” value was “x (activity was measured to be greater than 1.0 μM)” and the Emax is less than 65%. Further, in assay [2], the “M4 Activity” value is recorded as “x (activity was measured to be greater than 1.0 μM)” and the Emax lay within 65 to 85%.

Consider `CCOC(=O)N1CCC(N2CCC3(CC2)CN(C(C)=O)c2ccc(-c4ccc(C#N)cc4)cc23)CC1` [compound 253], for which, in assay [1], the “M1 Activity” value is “xx (activity was measured to be between 0.1 μM and 1.0 μM)”; the Emax was 65 to 85%. Moreover, in assay [2], the “M4 Activity” value was “x (activity was measured to be greater than 1.0 μM)” and the Emax lay within 65 to 85%.

On to `CCOC(=O)N1CCC(N2CCC3(CC2)CN(C(=O)C2CCC2)c2ccc(F)cc23)CC1` [compound 254], for which, in assay [1], the “M1 Activity” value is recorded as “x (activity was measured to be greater than 1.0 μM)” and the Emax lay within 65 to 85%. In addition, in assay [2], the “M4 Activity” value is given as “x (activity was measured to be greater than 1.0 μM)” and the Emax was 65 to 85%.

`CCNC(=O)N1CC2(CCN(C3CC4CCC(C3)N4C(=O)OCC)CC2)c2cc(F)ccc21` (stereo not drawn) [compound 255]: in assay [1], the “M1 Activity” value was “x (activity was measured to be greater than 1.0 μM)” and the Emax is less than 65%. In addition, in assay [2], the “M4 Activity” value is recorded as “x (activity was measured to be greater than 1.0 μM)” and the Emax was less than 65%.

As for `CCOC(=O)N1CCC(CN2CCC3(CC2)CN(C(C)=O)c2ccc(Cl)cc23)CC1` [compound 256], in assay [1], the “M1 Activity” value is “xx (activity was measured to be between 0.1 μM and 1.0 μM)”; the Emax was less than 65%. Also, in assay [2], the “M4 Activity” value is “xx (activity was measured to be between 0.1 μM and 1.0 μM)”; the Emax was less than 65%.

`Clc1ccc2c(c1)C1(CCN(C3CCOCC3)CC1)CO2` [compound 257]: in assay [1], the “M1 Activity” value was “x (activity was measured to be greater than 1.0 μM)” and the Emax was greater than 85%. Moreover, in assay [2], the “M4 Activity” value is “x (activity was measured to be greater than 1.0 μM)” and the Emax was less than 65%.

Turning to `O=C(OC1CCCC1)N1C2CCC1CC(N1CCC3(CCc4ccccc43)CC1)C2` (stereo not drawn) [compound 258], in assay [1], the “M1 Activity” value was “x (activity was measured to be greater than 1.0 μM)” and the Emax is 65 to 85%. Besides, in assay [2], the “M4 Activity” value is given as “x (activity was measured to be greater than 1.0 μM)” and the Emax is less than 65%.

`O=C1Nc2ccccc2C12CCN(C1CC3CCC1C3)CC2` (stereo not drawn) [compound 259]: in assay [1], the “M1 Activity” value is reported as “x (activity was measured to be greater than 1.0 μM)” and the Emax fell in the range of 65 to 85%. Also, in assay [2], the “M4 Activity” value was “x (activity was measured to be greater than 1.0 μM)” and the Emax was less than 65%.

As to `CCOC(=O)N1CCC(N2CCC3(CC2)CN(C(=O)c2ccncc2)c2ccc(F)cc23)CC1` [compound 260], in assay [1], the “M1 Activity” value is given as “xxx (activity was measured to be less than 0.1 μM)” and the Emax is 65 to 85%. Moreover, in assay [2], the “M4 Activity” value is listed as “x (activity was measured to be greater than 1.0 μM)” and the Emax was less than 65%.

On to `CC(=O)N[C@H]1CC2(CCN(C3CCCCCCC3)CC2)c2ccccc21` [compound 261], for which, in assay [1], the “M1 Activity” value is “xx (activity was measured to be between 0.1 μM and 1.0 μM)”; the Emax is less than 65%. Further, in assay [2], the “M4 Activity” value is “x (activity was measured to be greater than 1.0 μM)” and the Emax is less than 65%.

For `CCOC(=O)N1CCC(N2CCC3(CC2)CN(C(=O)c2ccccc2OC)c2ccc(F)cc23)CC1` [compound 262], in assay [1], the “M1 Activity” value is listed as “x (activity was measured to be greater than 1.0 μM)” and the Emax was less than 65%. Besides, in assay [2], the “M4 Activity” value is reported as “x (activity was measured to be greater than 1.0 μM)” and the Emax was less than 65%.

Consider `C1=C[C@H]2C[C@H]1C[C@@H]2CN1CCC2(CCc3ccccc32)CC1` [compound 263], for which, in assay [1], the “M1 Activity” value was “xxx (activity was measured to be less than 0.1 μM)” and the Emax was less than 65%. In assay [2], the “M4 Activity” value is on record as “xxx (activity was measured to be less than 0.1 μM)” and the Emax was less than 65%.

For `COCCOC(=O)N1CCC(N2CCC3(CC2)CN(C(=O)N(C)C)c2ccc(F)cc23)CC1` [compound 265], in assay [1], the “M1 Activity” value is “xx (activity was measured to be between 0.1 μM and 1.0 μM)”; the Emax is less than 65%. In addition, in assay [2], the “M4 Activity” value was “xx (activity was measured to be between 0.1 μM and 1.0 μM)”; the Emax was less than 65%.

Turning to `CCCOC(=O)N1CCCC(N2CCC3(CC2)CN(C(C)=O)c2ccc(F)cc23)CC1` (stereo not drawn) [compound 266], in assay [1], the “M1 Activity” value is on record as “x (activity was measured to be greater than 1.0 μM)” and the Emax was less than 65%. In assay [2], the “M4 Activity” value is “x (activity was measured to be greater than 1.0 μM)” and the Emax was less than 65%.

In the case of `CCOC(=O)N1CCC(N2CCC3(CC2)CN(C(=O)c2ccccc2F)c2ccc(F)cc23)CC1` [compound 267], in assay [1], the “M1 Activity” value is recorded as “x (activity was measured to be greater than 1.0 μM)” and the Emax was less than 65%. In addition, in assay [2], the “M4 Activity” value was “x (activity was measured to be greater than 1.0 μM)” and the Emax is less than 65%.

As to `CC(=O)N1CC2(CCN(C3CCOCC3)CC2)c2cc(F)ccc21` [compound 268], in assay [1], the “M1 Activity” value is “x (activity was measured to be greater than 1.0 μM)” and the Emax was less than 65%. In assay [2], the “M4 Activity” value is “x (activity was measured to be greater than 1.0 μM)” and the Emax is less than 65%.

Take `CC(=O)N1CC2(CCN(C3CCN(C(=O)OC(C)C)CC3)CC2)c2cc(F)ccc21` [compound 269]: in assay [1], the “M1 Activity” value is “xxx (activity was measured to be less than 0.1 μM)” and the Emax lay within 65 to 85%. In assay [2], the “M4 Activity” value is on record as “xxx (activity was measured to be less than 0.1 μM)” and the Emax is greater than 85%.

`CCCCC(=O)N1CC2(CCN(C3CCN(C(=O)OCC)CC3)CC2)c2cc(F)ccc21` [compound 270]: in assay [1], the “M1 Activity” value is “xxx (activity was measured to be less than 0.1 μM)” and the Emax lay in the range of 65 to 85%. In assay [2], the “M4 Activity” value is on record as “xxx (activity was measured to be less than 0.1 μM)” and the Emax is greater than 85%.

For the compound `O=C(OC1CCCC1)N1C2CCC1CC(N1CCC3(CC1)C(=O)Nc1ccccc13)C2` (stereo not drawn) [compound 271], in assay [1], the “M1 Activity” value is given as “xxx (activity was measured to be less than 0.1 μM)” and the Emax fell in the range of 65 to 85%. Also, in assay [2], the “M4 Activity” value is recorded as “xxx (activity was measured to be less than 0.1 μM)” and the Emax is less than 65%.

Turning to `c1ccc2c(c1)NCC21CCN(C2CC3CCC2C3)CC1` (stereo not drawn) [compound 272], in assay [1], the “M1 Activity” value is “xxx (activity was measured to be less than 0.1 μM)” and the Emax was 65 to 85%. Moreover, in assay [2], the “M4 Activity” value is listed as “xxx (activity was measured to be less than 0.1 μM)” and the Emax is greater than 85%.
